Results reported in ChEMBL document CHEMBL5634069, “Exploring N-myristoyltransferase as a promising drug target against parasitic neglected tropical diseases” (Eur J Med Chem, 2023).
Blank lines part the entries; values can stand above or below the compound they belong to.

Assays:
Leishmania donovani [1] = experiment: Antileishmanial activity against Leishmania donovani MHOM/ET/67/HU3 axenic amastigotes; type: functional, organism-based
[2] = Inhibition of Trypanosoma brucei NMT
[3] = Selectivity index, ratio of IC50 for MDCK cells to IC50 for trophozoite stage Plasmodium falciparum 3D7; type: toxicity; conditions: dog; read-out: Ratio IC50
Plasmodium falciparum [4] = experiment: Antiplasmodial activity against trophozoite stage Plasmodium falciparum 3D7 assessed as inhibition of plasmodial growth measured after 48 hrs by flow cytometry analysis; type: functional, organism-based; conditions: 3D7, 48 h
Plasmodium falciparum [5] = experiment: Antiplasmodial activity against chloroquine resistant Plasmodium falciparum K1 assessed as inhibition of plasmodial growth measured after 48 hrs by flow cytometry analysis; type: functional, organism-based; conditions: K1, 48 h
[6] = Cytotoxicity against MDCK cells incubated overnight by MTT assay; type: toxicity, cell-based, Canis lupus familiaris; conditions: dog
[7] = Inhibition of recombinant Leishmania donovani NMT
Trypanosoma brucei [8] = experiment: Antitrypanosomal activity against Trypanosoma brucei assessed as reduction in parasite growth; type: functional, organism-based
[9] = molecular target: T1, Glycylpeptide N-tetradecanoyltransferase 1 (Homo sapiens, UniProt P30419); experiment: Inhibition of human NMT
T1 sequence (P30419 whole entry): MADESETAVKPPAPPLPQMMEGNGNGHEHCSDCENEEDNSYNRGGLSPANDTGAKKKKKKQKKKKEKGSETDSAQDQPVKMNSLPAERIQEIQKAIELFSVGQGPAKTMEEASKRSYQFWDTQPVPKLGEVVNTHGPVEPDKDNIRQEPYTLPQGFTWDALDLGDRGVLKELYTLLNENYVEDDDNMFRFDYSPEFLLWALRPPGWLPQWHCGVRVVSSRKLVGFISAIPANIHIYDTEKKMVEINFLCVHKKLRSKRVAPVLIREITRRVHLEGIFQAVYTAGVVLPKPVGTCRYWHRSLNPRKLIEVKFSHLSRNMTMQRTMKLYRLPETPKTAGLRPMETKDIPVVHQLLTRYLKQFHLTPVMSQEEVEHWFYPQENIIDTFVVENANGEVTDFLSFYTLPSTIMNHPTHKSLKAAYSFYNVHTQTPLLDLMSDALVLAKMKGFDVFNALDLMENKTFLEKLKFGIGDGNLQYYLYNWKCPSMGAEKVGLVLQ

Trypanosoma brucei [10] = experiment: Antiprotozoal activity against blood stream form Trypanosoma brucei assessed as reduction in number of viable parasites measured after 72 hrs by Alamar blue staining based analysis; type: functional; conditions: read-out: ED50 (the source's name)
[11] = Inhibition of N terminal his-6 tagged recombinant Trypanosoma brucei NMT using CAP5.5 peptide as substrate incubated for 10 mins
[12] = Cytotoxicity against mouse RAW 264 cells by alamar blue staining based analysis; type: functional; conditions: RAW264.7, read-out: ED50 (the source's name)
Leishmania amazonensis = experiment: Antileishmanial activity against Leishmania amazonensis IFLA/BR/1967/PH8 promastigote; type: functional, organism-based
[13] = Inhibition of Leishmania donovani NMT using 3H-myristoyl CoA as substrate preincubated for 15 mins followed by substrate addition and measured after 80 mins
Plasmodium falciparum [14] = experiment: Antiplasmodial activity against Plasmodium falciparum; type: functional, organism-based
Leishmania donovani [15] = experiment: Antileishmanial activity against Leishmania donovani promastigote assessed as reduction in parasite growth measured after 72 hrs; type: functional, organism-based
[16] = system: Trypanosoma brucei brucei; experiment: Antitrypanosomal activity against bloodstream Trypanosoma brucei brucei s427 assessed as reduction in parasite growth measured after 72 hrs by inverted microscope based analysis; type: functional, organism-based; conditions: s427, 72 h
[17] = molecular target: T2, Glycylpeptide N-tetradecanoyltransferase (Plasmodium falciparum, UniProt Q9U419); experiment: Inhibition of recombinant N-terminal Plasmodium falciparum NMT expressed in Escherichia coli using peptide substrate preincubated for 5 mins followed by substrate addition and measured after 30 mins by scintillation proximity assay
T2 sequence (Q9U419 whole entry): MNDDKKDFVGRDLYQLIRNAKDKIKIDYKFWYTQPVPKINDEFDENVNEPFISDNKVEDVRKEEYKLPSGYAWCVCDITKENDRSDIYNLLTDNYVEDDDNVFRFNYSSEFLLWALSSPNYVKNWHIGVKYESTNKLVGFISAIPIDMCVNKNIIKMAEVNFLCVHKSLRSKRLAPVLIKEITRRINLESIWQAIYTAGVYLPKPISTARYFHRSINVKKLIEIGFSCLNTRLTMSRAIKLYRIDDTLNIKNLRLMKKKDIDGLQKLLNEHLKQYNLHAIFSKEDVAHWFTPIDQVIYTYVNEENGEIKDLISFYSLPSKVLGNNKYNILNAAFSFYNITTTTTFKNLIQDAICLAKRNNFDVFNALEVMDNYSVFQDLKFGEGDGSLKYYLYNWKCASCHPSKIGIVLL

Plasmodium falciparum [18] = experiment: Antiplasmodial activity against synchronized late stage trophozoite Plasmodium falciparum 3D7 assessed as reduction in parasitemia relative to control; type: functional; parameters: scale not given: the % may be the effect or the level left
Trypanosoma cruzi [19] = experiment: Antiprotozoal activity against Trypanosoma cruzi amastigotes measured after 24 hrs; type: functional, organism-based
Trypanosoma cruzi [20] = experiment: Antiprotozoal activity against Trypanosoma cruzi epimastigotes assessed as reduction in parasite growth relative to control; type: functional; parameters: scale not given: the % may be the effect or the level left
Leishmania donovani [21] = experiment: Antileishmanial activity against Leishmania donovani amastigotes; type: functional, organism-based
[22] = Binding affinity to Leishmania donovani NMT assessed as apparent inhibition constant; conditions: read-out: Ki(app)
Leishmania donovani [23] = experiment: Antileishmanial activity against Leishmania donovani promastigotes; type: functional, organism-based

EC50 (Leishmania donovani [1]): 7.1 µM
SMILES: Cc1nn(C)c(C)c1N(C)S(=O)(=O)c1c(Cl)cc(CCCC2CCN(C)CC2)cc1Cl

SMILES: Cc1cc(CN2C(=O)COc3ccccc32)no1
IC50 [2]: 2.9 µM

SMILES: O=S(=O)(c1cc(Cl)ccc1Cl)N1CCC(O[C@H](c2ccc(Cl)cc2)c2ccccn2)CC1
selectivity ratio [3]: > 92.3
IC50 (Plasmodium falciparum [4]): 2.17 µM
IC50 (Plasmodium falciparum [5]): 2.38 µM
IC50 [6]: > 200 µM

IC50 [7]: 0.024 µM
SMILES: CCOC(=O)c1cnc2ccc(OCc3ccc(N4CCNCC4)nc3)cc2c1SCCC#N

EC50 (Trypanosoma brucei [8]): 0.007 µM
SMILES: Cc1cc(CN2C(=O)COc3c(CCCCC4CCN(C)CC4)cccc32)no1

SMILES: Cc1nc(CN2C(=O)COc3ccccc32)no1
IC50 [2]: 7 µM

IC50 [9]: 24 µM
EC50 (Trypanosoma brucei [8]): 0.007 µM
SMILES: Cc1cc(CN2C(=O)COc3cc(CCCOC[C@@H]4CCCN4C)ccc32)no1
IC50 [2]: 0.009 µM

EC50 (Trypanosoma brucei [8]): 0.007 µM
SMILES: Cc1cc(CN2C(=O)COc3cc(CCCCC4CCN(C)CC4)ccc32)no1

EC50 (Trypanosoma brucei [10]): 66 µM
SMILES: CC(=O)O[C@@H]1C2[C@H](N(C)C)C(O)=C(C(N)=O)C(=O)[C@@]2(O)C(O)=C2C(=O)c3c(O)cccc3C(=O)[C@@H]21 (some centres undefined)
IC50 [11]: 0.25 µM
EC50 [12]: 1500 µM

SMILES: O=[N+]([O-])c1ccc(S(=O)(=O)N2CCC(O[C@@H](c3ccc(Cl)cc3)c3ccccn3)CC2)cc1
selectivity ratio [3]: > 61.1
IC50 (Plasmodium falciparum [4]): 3.27 µM
IC50 (Plasmodium falciparum [5]): 7.22 µM
IC50 [6]: > 200 µM

SMILES: O=C(C[Se]C(=O)c1ccc(Cl)cc1)Nc1ccc(Cl)cc1
IC50 (Leishmania amazonensis): 9.12 µM

IC50 [13]: 0.16 µM
SMILES: c1cncc(CCNCc2cccc(-c3cccc(CN4CCc5ncsc5C4)c3)c2)c1

IC50 (Plasmodium falciparum [14]): 3.6 µM
SMILES: Cc1ccc(S(=O)(=O)NC(C)C(=O)NC(C)C(=O)NC23CC4CC(CC(C4)C2)C3)cc1 (centres undefined)

IC50 [16]: 2.91 µM
SMILES: CCOC(=O)c1c(C)nn(-c2ccc(NS(=O)(=O)c3ccc(OC)cc3)cc2)c1C
IC50 (Leishmania donovani [15]): 13.8 µM

IC50 [16]: 11.8 µM
SMILES: Cc1nn(C)c(Cl)c1S(=O)(=O)Nc1ccc(Oc2ccc(F)cc2)cc1
IC50 (Leishmania donovani [15]): 45.3 µM

IC50 [17]: 30 µM
SMILES: O=C(Nc1nc2ccccc2s1)[C@H]1CC[C@@H](NCc2ccc3ccccc3c2)CC1
Activity (Plasmodium falciparum [18]): 80%

EC50 (Trypanosoma cruzi [19]): 1.83 µM
SMILES: Cc1c(NS(=O)(=O)c2c(Cl)cc(-c3ccnc(N4CCNCC4)c3)cc2Cl)c(CC(C)C)nn1C [ZELENIRSTAT]
Activity (Trypanosoma cruzi [20]): 0.43%

SMILES: Cc1nn(C)c(C)c1NS(=O)(=O)c1c(Cl)cc(-c2ccnc(N3CCNCC3)c2)cc1Cl
EC50 (Leishmania donovani [21]): 7 µM
Ki [22]: 0.0025 µM
EC50 (Leishmania donovani [23]): 23 µM

EC50 (Trypanosoma cruzi [19]): 0.06 µM
SMILES: Cc1nn(C)c(C)c1N(C(F)F)S(=O)(=O)c1c(Cl)cc(-c2ccc(CCCC3CCN(C)CC3)cc2)cc1Cl

IC50 [16]: 9.36 µM
SMILES: Cc1ccc(S(=O)(=O)Nc2ccccc2Sc2ncnc3c(C)csc23)cc1
IC50 (Leishmania donovani [15]): 32.1 µM

EC50 (Trypanosoma brucei [8]): 14 µM
SMILES: COc1cc(C2SCC(=O)N2Cc2ccccn2)ccc1O (centres undefined)
IC50 [2]: 0.27 µM
